Measured values: patent publication US20130053406A1, “THERAPEUTIC COMPOUNDS AND USES THEREOF” (Myrexis, Inc., priority 2009, published 2013)
pIC50: −log10 of the molar value.

Legend:
purified human Hsp90 = assay: Hsp90 binding assay (fluorescence polarization, displacement of BODIPY-geldanamycin); settings: displacement of BODIPY-GM (10 nM) from purified human Hsp90 (30 nM), overnight at room temperature
Protocol: Plates are incubated overnight at room temperature. Parallel and perpendicular fluorescence measurements are read (LJL BioSystems Analyst AD plate reader) at excitation/emission wavelengths of 485/530 nm. Background fluorescence (buffer only) is subtracted, and fluorescence polarization (FP) values, expressed in mP units, are calculated from parallel and perpendicular fluorescence readings as follows:
Percent inhibition is calculated by normalizing the FP values to those obtained in parallel reactions containing DMSO and subtracting these normalized values from 100%. Intrinsic compound fluorescence is independently monitored, and FP data points confounded by compound fluorescence are excluded from the analysis.

HCT116 cells = assay: Cytotoxicity assay (ATPLite, 72 hours); assay type: cell-based; settings: Homo sapiens, HCT-116, ATPLite luminescence
Protocol: HCT116 cells are seeded into black 96-well plates at 5,000 cells per well in 100 microliters (DMEM supplemented with 10% serum) and are incubated overnight. […] Plates are equilibrated to room temperature (5 min). Fifty microliters lysis buffer followed by 50 microliters substrate solution (ATPLite [2 step], Perkin-Elmer, #601941) is added to each well, and plates are incubated at room temperature 5 minutes. Luminescence is then measured (TopCount, Perkin-Elmer).

Row | SMILES | pIC50 (purified human Hsp90) | pIC50 (HCT116 cells)
1 | [2H]C1([2H])Oc2cc(Br)c(Sc3nc4c(N)ncnc4n3CCC3CCN(C(=O)[C@H](C)OC(C)=O)CC3)cc2O1 [(2S)-1-[4-(2-{6-amino-8-[(6-bromo-2,2-d2-benzo[d][1,3]dioxol-5-yl)sulfanyl]-9H-purin-9-yl}ethyl)piperidin-1-yl]-1-oxopropan-2-yl acetate] | 7.11 | 6.14
2 | [2H]C1([2H])Oc2cc(Br)c(Sc3nc4c(N)ncnc4n3CCC3CCN(C(=O)[C@H](C)O)CC3)cc2O1 [(2S)-1-[4-(2-{6-amino-8-[(6-bromo-2,2-d2-benzo[d][1,3]dioxol-5-yl)sulfanyl]-9H-purin-9-yl}ethyl)piperidin-1-yl]-2-hydroxypropan-1-one] | 6.60 | 5.92
